Experimental data taken from patent publication US20030130169A1, “Methods of treating drug-resistant bacterial infections” (priority 2001, published 2003).

Assays:
[1] = tested on: RepA-LacZ (SLI-SLIII interaction of RepA mRNA), plasmid pMU1550; test: RepA-LacZ reporter gene assay; format: cell-based; conditions: E. coli JP3923 harboring pMU1550, various concentrations, OD600 ~0.6
Method: Small molecules were tested for their ability to imitate the function of RNA I by binding to the RepA mRNA and disrupting the Stem Loop I-Stem Loop III (SLI-SLIII) loop-loop interaction, thus mimicking plasmid incompatibility. Aminoglycosides and their derivatives were selected for testing because of their ability to tightly bind RNA from a variety of sources, particularly regions of distorted RNA secondary structure, such as RNA loops or bulges.
To assess their ability to disrupt the SLI-SLIII interaction in vivo, small molecules were assessed using a RepA-LacZ reporter gene assay. To conduct the assay, the gene encoding β-galactosidase was fused to the RepA gene, incorporated into commercially available plasmid pMU1550. E. coli JP3923 harboring plasmid pMU1550 was grown in minimal media (MM)/Tm([…]) in the presence of various concentrations of the small molecules under evaluation. After reaching the appropriate optical density (˜OD600=0.6), Miller units of b-galactosidase were quantitated as per the standard protocol (see Miller, J. H, Experiments in Molecular Genetics, 1972, p352-355, Cold Spring Harbor Laboratory, Cold Spring Harbor, N.Y.). Any perturbation causing lower RepA production leads to a lowering of the β-galactosidase units upon quantitation A positive control utilizing a plasmid (pMU662) that overexpresses RNAII (containing the SLI-SLIII stretch) gave the expected high b-galactosidase signal. Each experiment was performed on at least three separate occasions.
In a second control, erythromycin A, a general translation inhibitor, was tested using the reporter gene assay.
These experiments gave the expected results.

[2] = tested on: IncB plasmid pMU2403 encoding β-lactamase; test: Assessment of plasmid elimination (master/replica plating); format: cell-based, E. coli strain JP4821; conditions: 25 μg/mL apramycin
Method: The anti-plasmid effect of apramycin, paromomycin I and kanamycin B was assessed. In general, plasmid-containing E. coli resistant to ampicillin were cultured using growth media containing subinhibitory (sublethal) amounts of each of these compounds. The bacteria were allowed to reproduce for a defined number of generations, after which the bacteria were plated out onto agar plates containing the tested small molecules. Replicas were then made onto plates containing the tested small molecules and the antibiotic, ampicillin. Colonies that appeared on the master plate, but not the replicas had been rendered sensitive to ampicillin
In particular, E. coli strain JP4821 containing the commercially available IncB plasmid pMU2403, which encodes for β-lactamase, was grown in MM in the presence of 25 μg/mL apramycin for a defined number of generations. Typically, samples of the bacteria were plated out onto LB/Apra^25 plates after 10-12 generations, and replica plates were then made onto LB/Apra^25/Amp^100 plates. Percentage of plasmid lost was calculated by counting the number of colonies successfully replicated and dividing by the total number of colonies on the master plate; the entire plasmid loss assay was performed on two separate occasions. On average, greater than 200 master plate colonies were used for each of these evaluations. Evaluations of paromomycin I and kanamycin B were performed in an analogous fashion, with paromomycin I at 15 mg/mL, and kanamycin B at 10 mg/mL.
To confirm that antibiotic sensitivity was due to plasmid loss, plasmid preparations were performed to isolate plasmid from the non-replicating colonies on the master plate, and from control colonies. No plasmids were isolated from the non-replicating colonies, while plasmid was successfully isolated from the control colonies that did replicate.

[3] = molecular target: SLI-SLIII loop-loop complex; test: In vitro SLI-SLIII loop-loop disruption assay (displacement of fluorescein-labeled SLIII from bead-bound SLI); format: binding; conditions: biotinylated SLI on streptavidin agarose bead, fluorescein-labeled SLIII displaced; read-out: Kd for disrupting the SLI-SLIII interaction
Method: To further investigate the mechanism by which apramycin causes plasmid elimination, the SLI-SLIII loop-loop interaction was reconstituted in vitro. SLI was biotinylated and bound to a streptavidin coated agarose bead. Fluorescein-labeled SLIII was added to form the loop-loop complex. This complex was then incubated with varous concentrations of apramycin and the amount of SLIII displaced by apramycin was assessed by quantitation of the fluorescence in solution. These experiments indicate that apramycin is disrupting the SLI-SLIII interaction with a Kd of 1 μM.

SLIII = test: Direct binding to fluorescein-labeled RNA (fluorescence titration); conditions: various apramycin concentrations
Method: (§1) The direct binding of apramycin to SLI and SLIII was then assessed in vitro using fluorescently-labeled RNAs.
(§2) For these experiments, RNA oligonucleotides were obtained from Dharmacon Research (Lafayette, Colo.), and were deprotected according to the manufacturer's protocol. The sequence of FI-SLI is FI.C.G.CCA.UAA.GCG.ACA.GCU.UGU.GGC. The sequence of FI-SLIII is FI.UAU.UUU.UCC.UCG.AAC.UUG.GCG.GAA.CGC.AGA.AAA.AUA. All fluorescence measurements were performed on an ISS PC1 spectrofluorometer with slitwidths and lamp current optimized for sufficient signal counts at the given RNA-fluorescein concentration. Deprotected RNA oligonucleotides were made up to 1 mM in 50 mM Tris-HCl, pH 7.3, and folded by heating to 90° C. for 3 min, then slowly cooling to rt. To assess the binding of apramycin to the fluorescently-labeled RNAs, […] of the folded RNA was transferred to a 4×10×48 mm fluorescence cuvette (Starna Cells) and allowed to equilibrate to 37° C. in the spectrofluorometer's sample chamber for 15 minutes. Apramycin was added in […] portions from a stock solution, and a minimum of 5 minutes was allotted for equilibration. Three fluorescence spectra were acquired at each apramycin concentration. The spectra were taken with a 490 nm excitation wavelength and emission intensity was measured from 510-540 nm at an interval of one nanometer. At each point along the spectrum, an average of 3 data points was taken to give an averaged intensity at that integral wavelength. In processing the spectra, the point at 523 nm was chosen as a representative wavelength to monitor change in intensity over a range of apramycin concentrations. The 523 nm data points from each of the three averaged spectra were averaged at each apramycin concentration to give a composite average of nine measurements at 523 nm at each apramycin concentration. All intensity measurements are reported uncorrected for dilutions, as volume change over the course of the experiment is minimal.

SLI = test: as above
Method: as §1, §2

[4] = tested on: plasmids differing in copy numbers, size and nature of replication; conditions: cited from earlier work

CN[C@@H]1[C@@H](O[C@H]2O[C@H](CO)[C@@H](N)[C@H](O)[C@H]2O)OC2C[C@@H](N)[C@@H](O[C@H]3[C@H](O)[C@@H](O)[C@H](N)C[C@@H]3N)OC2[C@@H]1O (stereo partly drawn) [apramycin]
reporter gene signal (Miller units of β-galactosidase) [1]: dose dependent decrease
plasmid elimination ([2]; after 220 generations): virtually complete elimination
plasmid elimination ([2]; overall conclusion): virtually complete elimination of plasmid
sensitization of bacteria to ampicillin ([2]; replica plates LB/Apra25/Amp100): sensitizes the bacteria to ampicillin
Kd [3]: 1000 nM
change in fluorescence of labeled SLIII (SLIII): no significant change in fluorescence
Kd (SLI; 50 mM Tris-HCl pH 7.3, 37° C., read-out: Kd of apramycin-SLI interaction): 200 nM
change in fluorescent signal of labeled SLI (SLI; various apramycin concentrations): significant decrease

NC[C@@H]1O[C@H](O[C@H]2[C@@H](O)[C@H](O[C@@H]3[C@@H](O)[C@H](N)C[C@H](N)[C@H]3O[C@H]3O[C@H](CO)[C@@H](O)[C@H](O)[C@H]3N)O[C@@H]2CO)[C@H](N)[C@@H](O)[C@@H]1O [paromomycin I]
reporter gene signal (Miller units of β-galactosidase) [1]: dose dependent decrease

CC[C@H]1OC(=O)[C@H](C)[C@@H](O[C@H]2C[C@@](C)(OC)[C@@H](O)[C@H](C)O2)[C@H](C)[C@@H](O[C@@H]2O[C@H](C)C[C@H](N(C)C)[C@H]2O)[C@](C)(O)C[C@@H](C)C(=O)[C@H](C)[C@@H](O)[C@]1(C)O [Erythromycin A, erythromycin A]
reporter gene signal (Miller units of β-galactosidase) [1]: no effect

N[C@@H]1[C@H]2CN(c3nc4c(cc3F)c(=O)c(C(=O)O)cn4-c3ccc(F)cc3F)C[C@@H]12 [Trovafloxacin]
plasmid curing effect [4]: plasmid curing

NC[C@H]1O[C@H](O[C@H]2[C@H](O)[C@@H](O[C@H]3O[C@H](CO)[C@@H](O)[C@H](N)[C@H]3O)[C@H](N)C[C@@H]2N)[C@H](N)[C@@H](O)[C@@H]1O [kanamycin B]
reporter gene signal (Miller units of β-galactosidase) [1]: dose dependent decrease
